In ChEMBL document CHEMBL1127105, “Adenosine-2-monophosphate derivatives: Structural requirements as substrates for inositol monophosphatase” (Bioorg Med Chem Lett, 1993):

Legend:
[1] = target: T1, Inositol monophosphatase 1 (Bos taurus) (UniProt P20456); experiment: Activity against the bovine inositol monophosphatase was determined by rate of release of inorganic phosphate at 1 mM substrate concentration, 1 mM of inositol-1-phosphate (1).
T1 sequence (whole entry): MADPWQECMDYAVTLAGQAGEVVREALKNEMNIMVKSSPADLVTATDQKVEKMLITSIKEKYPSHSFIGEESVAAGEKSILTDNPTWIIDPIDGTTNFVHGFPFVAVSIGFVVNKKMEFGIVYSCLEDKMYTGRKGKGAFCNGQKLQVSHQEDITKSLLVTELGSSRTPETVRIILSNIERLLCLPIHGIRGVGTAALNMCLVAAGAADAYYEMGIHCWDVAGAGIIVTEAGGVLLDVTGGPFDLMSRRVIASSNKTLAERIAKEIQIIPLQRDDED

[2] = target: T2, Inositol monophosphatase 1 (Bos taurus, UniProt P20456); experiment: Tested for the inhibitory activity against bovine inositol monophosphatase by measuring concentration inhibiting the production of [14C]inositol from racemic inositol monophosphate (1) containing [14C]-1
T2 sequence (P20456 whole entry): T1 sequence (whole entry)

Activity [1]	IC50 [2]	Structure (SMILES)
0.53	1800 µM	O=P(O)(O)O[C@@H]1CO[C@@H](CO)[C@@H]1O
0.65	2900 µM	O=P(O)(O)O[C@H]1CO[C@H](CO)[C@H]1O
0.48	1300 µM	Nc1ncnc2c1ncn2[C@@H]1O[C@H](CO)[C@@H](O)[C@H]1OP(=O)(O)O
	5000 µM	O=P(O)(O)O[C@H]1CCC[C@H]1O
0.53	3600 µM	O=P(O)(O)O[C@H]1COC[C@H]1O
< 0.05	2100 µM	O=P(O)(O)O[C@H]1CC[C@H](CO)[C@H]1O
< 0.05	310 µM	O=P(O)(O)O[C@H]1CC[C@@H](CO)[C@H]1O

Structure (SMILES)	Activity [1]	IC50 [2]
O=P(O)(O)[C@H]1CC[C@H](O)C[C@H]1O		7 µM
